Assay results published in US9134327B2, “STAT3 and TYK2 as drug targets for neurodegenerative diseases” (Biotechnology Research Corporation Limited, priority 2008, dated 2015).

What was measured:
[1] = tested on: STAT3 (P-Tyr, Tyr705); test: Tyrosine phosphorylation of STAT3 in cortical neurons, immunoblot; assay type: cell-based, rat; conditions: for inhibition of Aβ-induced tyrosine phosphorylation of STAT3: primary cortical neurons pretreated with inhibitor 2 hrs, then Aβ25-35 for 4 hrs or 24 hrs
Method: FIG. 2: Tyrosine phosphorylation of STAT3 is increased in cultured cortical neurons stimulated with Aβ25-35. Primary cortical neurons at 7 DIV were treated with Aβ25-35 (40 μM; H2O served as solvent control) for various times as indicated. Cell lysates were collected and subjected to immunoblotting using P-Tyr STAT3 and total STAT3 antibodies.
(§1) FIG. 4: Tyk2 is required for beta-amyloid peptide-induced tyrosine phosphorylation of STAT3 and neuronal cell death. A. Primary cortical neurons were pretreated with various inhibitors including a potent inhibitor of JAK (JAK inhibitor 1), a JAK2 inhibitor (AG490), a Src tyrosine kinase inhibitor (PP2) and a protein synthesis inhibitor (cycloheximide) for 2 hrs as indicated, followed by treatment with Aβ25-35 peptide for 4 hrs or 24 rs. The cell lysates were immunoblotted with P-Tyr STAT3 and total STAT3 antibody. B. Primary cortical neurons were treated with Aβ25-35. The cell lysates were immunoprecipitated using Tyk2 or JAK2 antibody, and then subjected to Western blot analysis for phospho-tyrosine (P-Tyr) antibody. C. Primary cortical neurons prepared from Tyk2^−/− mice were treated with Aβ25-35. The cell lysates were subjected to immunoblotting using P-Tyr STAT3, total STAT3 and caspase-3 antibody. Quantification analysis of fold change in tyrosine phosphorylated STAT3 and cleaved caspase-3 (bottom panels).
Cultured rat cortical neurons were used as a cell culture model to investigate the role of STAT3 tyrosine phosphorylation in AD. The cortical neurons (7 DIV) were treated with Aβ peptide 25-35.
Since Aβ induced tyrosine phosphorylation of STAT3, the next aim was to identify the upstream regulators of STAT3. Cortical neurons were pre-treated with different inhibitors prior to […] treatment. […] Cortical neurons were treated with Aβ peptide for 1 hr. Endogenous Tyk2 or JAK2 were immunoprecipitated by specific antibodies, and the precipitates were detected by monoclonal phospho-tyrosine antibody, 4G10.
Preparation of Brain Extracts, Cell Extracts, and Western Blots: Four Brain Parts including cortex, hippocampus, cerebellum and striatum were dissected from transgenic mice of various stages (from 2 months to 18 months) and kept on dry ice. Frozen brain tissues were homogenized in homogenizing buffer (25 mM Tris-HCl, pH 7.4, 150 mM NaCl, 1 mM EDTA, pH 7.4, 50 mM NaF) with various protease inhibitors. The supernatant was kept for Western Blotting and the pellets were reextracted using RIPA lysis buffer (150 mM NaCl, 1% (v/v) Nonidet P-40, 0.5% deoxycholic acid, 0.1% (w/v) SDS) containing various protease inhibitors (2 μg/ml aprotinin, 1 mM phenylmethylsulfonyl fluoride, 5 mM benzamidine, 1 mM sodium orthovanadate (NaOV), and 10 μg/ml soybean trypsin inhibitor). Primary cultured cortical neurons or PC12 cells were harvested and lysed in RIPA lysis buffer containing protease inhibitors.

[2] = tested on: iNOS gene expression; test: iNOS mRNA in primary cortical neurons, real-time PCR; assay type: cell-based
Method: (§2) FIG. 5: Transcription activity of STAT3 in PC12 cells and iNOS RNA in cultured cortical neurons increases upon stimulation with Aβ25-35. A. PC12 cells were transfected with a STAT1 (pGAS-Luc) or STAT3 (pSTAT3-Luc) reporter gene construct together with an internal control plasmid (β-galactosidase-pCMV). The cells were differentiated by NGF for 4 days, and were then treated with Aβ25-35 or NGF (positive control) for 1 day. Luciferase activity was measured and normalized against the β-galactosidase activity in the samples. Results were normalized with β-galactosidase activity; mean±S.E., n=3; *, p<0.05. B. Primary cortical neurons at 7 DIV were pretreated with STAT3 inhibitor or JAK inhibitor I for 30 minutes, followed by Aβ25-35 (40 μM) treatment for 6 hours. Total RNA was collected and subjected to reverse transcription. The cDNA was then subjected to real-time PCR analysis using iNOS primers.
Primary cortical neurons were treated with Aβ peptide for 6 hr. […]
Quantitative RT-PCR: Total RNA was isolated from Aβ-treated cortical neurons using RNeasy mini kit (Qiagen) according to the manufacturer's instruction. […] Quantitative PCR was performed with specific primers targeting specific genes using Bio-Rad MX3000P real-time PCR system.

[3] = tested on: Tyk2; test: Tyk2 tyrosine phosphorylation in cortical neurons, immunoprecipitation and phospho-tyrosine blot; assay type: cell-based; conditions: cortical neurons treated 1 hr; IP Tyk2, 4G10 blot
From the text: as §1
Since Aβ induced tyrosine phosphorylation of STAT3, the next aim was to identify the upstream regulators of STAT3. Cortical neurons were pre-treated with different inhibitors prior to iv treatment. […] Endogenous Tyk2 or JAK2 were immunoprecipitated by specific antibodies, and the precipitates were detected by monoclonal phospho-tyrosine antibody, 4G10.

[4] = tested on: STAT3; test: STAT3 luciferase reporter (pSTAT3-Luc) in PC12 cells; assay type: cell-based; conditions: PC12 cells differentiated by NGF 4 days, treated 1 day
Method: as §2
(§3) To further characterize if Aβ peptide effects STAT3 transcriptional activity, PC12 cells were transfected with a luciferase construct linked to the STAT3-response enhancer element (pSTAT3-Luc). The luciferase construct linked to the STAT1-response enhancer element (pGAS-Luc) was used as a control.

[5] = tested on: STAT1; test: STAT1 luciferase reporter (pGAS-Luc) in PC12 cells; assay type: cell-based; conditions: PC12 cells differentiated by NGF 4 days, treated 1 day
Method: as §2, §3

N#C/C(=C/c1ccc(O)c(O)c1)C(=O)NCc1ccccc1 [AG490]
inhibition of Aβ-induced tyrosine phosphorylation of STAT3 [1]: did not exhibit similar inhibitory effects

CC(C)(C)c1nc2c3cc[nH]c(=O)c3c3cc(F)ccc3c2[nH]1 [JAK inhibitor 1]
inhibition of Aβ-induced tyrosine phosphorylation of STAT3 [1]: completely inhibited
block of Aβ-induced increase in iNOS gene expression ([2]; primary cortical neurons 7 DIV, 30 minutes pretreatment, then Aβ25-35 40 μM for 6 hours): blocked

CC(C)(C)n1nc(-c2ccc(Cl)cc2)c2c(N)ncnc21 [PP2]
inhibition of Aβ-induced tyrosine phosphorylation of STAT3 [1]: neither the Src kinase inhibitor PP2 nor the protein synthesis inhibitor cycloheximide affected

C[C@@H]1C[C@@H]([C@H](O)CC2CC(=O)NC(=O)C2)C(=O)[C@@H](C)C1 [cycloheximide]
inhibition of Aβ-induced tyrosine phosphorylation of STAT3 [1]: neither the Src kinase inhibitor PP2 nor the protein synthesis inhibitor cycloheximide affected

Aβ peptide 25-35: β-amyloid peptide fragment 25-35 used to stimulate neurons and PC12 cells (GSNKGAIIGLM; Amyloid-beta protein 42; UniProt P05067 696-706, looked up, fragment)
Tyk2 tyrosine phosphorylation after treatment [3]: could be detected
STAT3 promoter activity (pSTAT3-Luc luciferase) [4]: only induced the STAT3 promoter activity
STAT1 promoter activity (pGAS-Luc luciferase) [5]: only induced the STAT3 promoter activity
tyrosine phosphorylation of STAT3 induced by treatment ([1]; cortical neurons 7 DIV, Aβ25-35 40 μM, up to 4 hrs): significant increase in tyrosine phosphorylation of STAT3
iNOS gene expression level after treatment ([2]; primary cortical neurons, 6 hr treatment): increased

B1: NGF: growth factor used to differentiate PC12 cells; positive control in the reporter assay (protein, UniProt P25427 122-241, looked up)
Beta-nerve growth factor: SSTHPVFHMGEFSVCDSVSVWVGDKTTATDIKGKEVTVLGEVNINNSVFKQYFFETKCRAPNPVESGCRGIDSKHWNSYCTTTHTFVKALTTDDKQAAWRFIRIDTACVCVLSRKAARRG
STAT3 promoter activity (pSTAT3-Luc luciferase) [4]: induced the promoter activity of both STAT3 and STAT1
STAT1 promoter activity (pGAS-Luc luciferase) [5]: induced the promoter activity of both STAT3 and STAT1
